The values below are quoted from earlier work in PubChem BioAssay AID1259409 (Chemical Carcinogenesis Research Information System (CCRIS), 2018).

The subject of this series is rodent chemically induced tumor inhibition, incidence and multiplicity. The series can be described thus: CCRIS tumor inhibitor studies.

Consider `O=c1cc(-c2ccccc2)oc2c1ccc1ccccc12`, for which the “tumour outcome (control, treated, inhibition, significance)” value runs as follows: (Carcinogen: 2-AMINO-1-METHYL-6-PHENYLIMIDAZO[4,5-B]PYRIDINE [105650-23-5], Dose [Inhibitor]: 1,000 PPM IN DIET FOR 4 WK BEGINNING WK PRIOR TO FIRST CARCINOGEN DOSE (STUDY DURATION: 25 WK), Route [Inhibitor]: ORAL, Species: RAT, Strain/Sex: SPRAGUE-DAWLEY/FEMALE, Target Tissue: Type of Lesion: MAMMARY GLAND: FIBROADENOMA OR DUCTAL CARCINOMA, Dose [Carcinogen]: 85 MG/KG BW 2/WK FOR 4 WK (STUDY DURATION: 25 WK), Promoter: NONE) 63%, 36%, 42%, not significant; (Carcinogen: 6-HYDROXYMETHYLBENZO[A]PYRENE, 21247-98-3, Dose [Inhibitor]: 100 UG IN 0.2 ML ACETONE ONCE 5 MINUTES BEFORE CARCINOGEN TREATMENT (STUDY DURATION: 31 WK), Route [Inhibitor]: DERMAL, Species: MOUSE, Strain/Sex: CD-1/FEMALE, Target Tissue: Type of Lesion: SKIN: PAPILLOMA, Dose [Carcinogen]: 400 NMOL IN 0.2 ML ACETONE ONCE, Promoter: 12-O-TETRADECANOYLPHORBOL-13-ACETATE, 16561-29-8) 57%, 60%, -5%, not calculated; (Carcinogen: 6-METHYLBENZO[A]PYRENE, 2381-39-7, Dose [Inhibitor]: 100 UG IN 0.2 ML ACETONE ONCE 5 MINUTES BEFORE CARCINOGEN TREATMENT (STUDY DURATION: 31 WK), Route [Inhibitor]: DERMAL, Species: MOUSE, Strain/Sex: CD-1/FEMALE, Target Tissue: Type of Lesion: SKIN: PAPILLOMA, Dose [Carcinogen]: 400 NMOL IN 0.2 ML ACETONE ONCE, Promoter: 12-O-TETRADECANOYLPHORBOL-13-ACETATE, 16561-29-8) 73%, 40%, 44%, not calculated; (Carcinogen: 7,12-DIMETHYLBENZ[A]ANTHRACENE, 57-97-6, Dose [Inhibitor]: 0, 0.37 NMOL IN 0.2 ML ACETONE APPLIED 5 MIN PRIOR TO CARCINOGEN (STUDY DURATION: 21 WK), Route [Inhibitor]: DERMAL, Species: MOUSE, Strain/Sex: SENCAR/FEMALE, Target Tissue: Type of Lesion: SKIN: PAPILLOMA, Dose [Carcinogen]: 40 NMOL IN 0.2 ML ACETONE ONCE, Promoter: 12-O-TETRADECANOYLPHORBOL-13-ACETATE, 16561-29-8) 100%, 100%, 0%; (Carcinogen: 7,12-DIMETHYLBENZ[A]ANTHRACENE, 57-97-6, Dose [Inhibitor]: 0, 3.7 NMOL IN 0.2 ML ACETONE APPLIED 5 MIN PRIOR TO CARCINOGEN (STUDY DURATION: 21 WK), Route [Inhibitor]: DERMAL, Species: MOUSE, Strain/Sex: SENCAR/FEMALE, Target Tissue: Type of Lesion: SKIN: PAPILLOMA, Dose [Carcinogen]: 40 NMOL IN 0.2 ML ACETONE ONCE, Promoter: 12-O-TETRADECANOYLPHORBOL-13-ACETATE, 16561-29-8) 100%, 100%, 0%; (Carcinogen: 7,12-DIMETHYLBENZ[A]ANTHRACENE, 57-97-6, Dose [Inhibitor]: 0, 37 NMOL IN 0.2 ML ACETONE APPLIED 5 MIN PRIOR TO CARCINOGEN (STUDY DURATION: 21 WK), Route [Inhibitor]: DERMAL, Species: MOUSE, Strain/Sex: SENCAR/FEMALE, Target Tissue: Type of Lesion: SKIN: PAPILLOMA, Dose [Carcinogen]: 10 NMOL IN 0.2 ML ACETONE ONCE, Promoter: 12-O-TETRADECANOYLPHORBOL-13-ACETATE, 16561-29-8) 79%, 60%, 24%, not calculated. Besides, the “tumour outcome (control, treated, inhibition, significance)” value was 100%, 87%, 13%, not calculated (Carcinogen: 7,12-DIMETHYLBENZ[A]ANTHRACENE, 57-97-6, Dose [Inhibitor]: 0, 37 NMOL IN 0.2 ML ACETONE APPLIED 5 MIN PRIOR TO CARCINOGEN (STUDY DURATION: 21 WK), Route [Inhibitor]: DERMAL, Species: MOUSE, Strain/Sex: SENCAR/FEMALE, Target Tissue: Type of Lesion: SKIN: PAPILLOMA, Dose [Carcinogen]: 40 NMOL IN 0.2 ML ACETONE ONCE, Promoter: 12-O-TETRADECANOYLPHORBOL-13-ACETATE, 16561-29-8); 79%, 46%, 42%, not calculated (Carcinogen: 7,12-DIMETHYLBENZ[A]ANTHRACENE, 57-97-6, Dose [Inhibitor]: 0, 370 NMOL IN 0.2 ML ACETONE APPLIED 5 MIN PRIOR TO CARCINOGEN (STUDY DURATION: 21 WK), Route [Inhibitor]: DERMAL, Species: MOUSE, Strain/Sex: SENCAR/FEMALE, Target Tissue: Type of Lesion: SKIN: PAPILLOMA, Dose [Carcinogen]: 10 NMOL IN 0.2 ML ACETONE ONCE, Promoter: 12-O-TETRADECANOYLPHORBOL-13-ACETATE, 16561-29-8); 100%, 97%, 3%, not calculated (Carcinogen: 7,12-DIMETHYLBENZ[A]ANTHRACENE, 57-97-6, Dose [Inhibitor]: 0, 370 NMOL IN 0.2 ML ACETONE APPLIED 5 MIN PRIOR TO CARCINOGEN (STUDY DURATION: 21 WK), Route [Inhibitor]: DERMAL, Species: MOUSE, Strain/Sex: SENCAR/FEMALE, Target Tissue: Type of Lesion: SKIN: PAPILLOMA, Dose [Carcinogen]: 40 NMOL IN 0.2 ML ACETONE ONCE, Promoter: 12-O-TETRADECANOYLPHORBOL-13-ACETATE, 16561-29-8); 82%, 22%, 73%, not calculated (Carcinogen: 7,12-DIMETHYLBENZ[A]ANTHRACENE, 57-97-6, Dose [Inhibitor]: 25 UG/MOUSE APPLIED 6 HR BEFORE, 5 MIN BEFORE, AND 6 HR AFTER DMBA (STUDY DURATION: 28 WK), Route [Inhibitor]: DERMAL, Species: MOUSE, Strain/Sex: CD-1/FEMALE, Target Tissue: Type of Lesion: SKIN: PAPILLOMA, Dose [Carcinogen]: 2.56 UG APPLIED ONCE 5 MIN AFTER INHIBITOR, Promoter: 12-O-TETRADECANOYLPHORBOL-13-ACETATE, 16561-29-8); 82%, 48%, 41%, not calculated (Carcinogen: 7,12-DIMETHYLBENZ[A]ANTHRACENE, 57-97-6, Dose [Inhibitor]: 25 UG/MOUSE APPLIED ONCE 5 MIN BEFORE DMBA (STUDY DURATION: 28 WK), Route [Inhibitor]: DERMAL, Species: MOUSE, Strain/Sex: CD-1/FEMALE, Target Tissue: Type of Lesion: SKIN: PAPILLOMA, Dose [Carcinogen]: 2.56 UG APPLIED ONCE 5 MIN AFTER INHIBITOR, Promoter: 12-O-TETRADECANOYLPHORBOL-13-ACETATE, 16561-29-8); 90%, 38%, 58%, not calculated (Carcinogen: 7,12-DIMETHYLBENZ[A]ANTHRACENE, 57-97-6, Dose [Inhibitor]: 100 UG IN 0.2 ML ACETONE ONCE 5 MIN BEFORE CARCINOGEN TREATMENT (STUDY DURATION: 31 WK), Route [Inhibitor]: DERMAL, Species: MOUSE, Strain/Sex: CD-1/FEMALE, Target Tissue: Type of Lesion: SKIN: PAPILLOMA, Dose [Carcinogen]: 10 NMOL IN 0.2 ML ACETONE ONCE, Promoter: 12-O-TETRADECANOYLPHORBOL-13-ACETATE, 16561-29-8).
